Reference: patent publication US8795984B2, “Production of glycoproteins with reduced O-glycosylation” (Merck Sharp & Dohme Corp., priority 2005, dated 2014)

Assays:
[1] = test system: O-glycosylation of secreted recombinant reporter proteins; test: Western blot of His-tagged Kringle 1-3 protein in growth media (FIG. 1); assay type: cell-based, Pichia pastoris; details: yJC53 treated with 2 or 20 μM, compared with pmt1Δ strain yJC55
Description: Kringle 1-3 protein expression for the transformed yeast strains was carried out at in shake flasks at 24° C. with buffered glycerol-complex medium (BMGY) consisting of 1% yeast extract, 2% peptone, 100 mM potassium phosphate buffer pH 6.0, 1.34% yeast nitrogen base, 4×10-5% biotin, and 1% glycerol. The induction medium for protein expression was buffered methanol-complex medium (BMMY) consisting of 1% methanol instead of glycerol in BMGY. Pmt inhibitor Pmti-1, Pmti-2, or Pmti-3 in methanol was added to the growth medium to a final concentration of 0.2 μM, 2 μM, or 20 μM at the time the induction medium was added. Cells were harvested and centrifuged at 2,000 rpm for five minutes. The Pmt inhibitors Pmti-1, Pmti-2, and Pmti-3 are essentially interchangeable, with small variations in ease of use. […]

[2] = Solubility in the cell culture conditions; assay type: physicochemical; details: in the cell culture conditions described (BMGY/BMMY)
Description: Kringle 1-3 protein expression for the transformed yeast strains was carried out at in shake flasks at 24° C. with buffered glycerol-complex medium (BMGY) consisting of 1% yeast extract, 2% peptone, 100 mM potassium phosphate buffer pH 6.0, 1.34% yeast nitrogen base, 4×10-5% biotin, and 1% glycerol. The induction medium for protein expression was buffered methanol-complex medium (BMMY) consisting of 1% methanol instead of glycerol in BMGY. Pmt inhibitor Pmti-1, Pmti-2, or Pmti-3 in methanol was added to the growth medium to a final concentration of 0.2 μM, 2 μM, or 20 μM at the time the induction medium was added. Cells were harvested and centrifuged at 2,000 rpm for five minutes. The Pmt inhibitors Pmti-1, Pmti-2, and Pmti-3 are essentially interchangeable, with small variations in ease of use.

O=C(O)CN1C(=O)C(=Cc2ccc(OCc3ccccc3)c(OCc3ccccc3)c2)SC1=S [Pmti-1, 5-[[3,4-bis(phenylmethoxy)phenyl]methylene]-4-oxo-2-thioxo-3-thiazolidineacetic Acid]
O-glycosylation of Kringle 1-3 protein on Western blot [1]: reduced O-glycosylation to a level similar to that observed in a strain lacking Pmt1

O=C(O)CN1C(=O)/C(=C/c2ccc(OCCc3ccccc3)c(OC(CO)c3ccccc3)c2)SC1=S (centres unmarked) [Pmti-3]
solubility [2]: greater than that of Pmti-1 and Pmti-2
